Measurements taken from PubChem BioAssay AID2060888 (Molecular Pharmacology Branch, DTP, NCI, 2025).
Values joined by “and” are separate entries in the source; they are usually repeats but may differ in a detail not shown here. Identical values can stand only once.

Test system: 695427-040-R-J1-PDC complex spheroid viability
Assay: Anticancer human tumor 695427-040-R-J1-PDC patient-derived colon adenocarcinoma cell line growth inhibition [RAS]
Conditions: for viability, T/C: stronger effect = lower value
Outline: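 Multi-cell-type spheroids: tumor cells plus HUVEC endothelial cells and mesenchymal stem cells. RAS-pathway inhibitors were combined with targeted agents, each dosed in half-log steps down from clinical Cmax, or from 10 microM when Cmax was unknown.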

[1] = curve of first compound, second compound 0.000949 µM
[2] = curve of first compound, second compound 0.003 µM
[3] = curve of first compound, second compound 0.00949 µM
[4] = curve of first compound, second compound 0.03 µM
[5] = curve of first compound, second compound 0.0949 µM
[6] = curve of first compound, second compound 0.3 µM
[7] = second compound 0.000949 µM, first compound 0.0316 µM
[8] = second compound 0.000949 µM, first compound 0.1 µM
[9] = second compound 0.000949 µM, first compound 0.316 µM
[10] = second compound 0.000949 µM, first compound 1 µM
[11] = second compound 0.000949 µM, first compound 3.16 µM
[12] = second compound 0.000949 µM, first compound 10 µM
[13] = second compound 0.003 µM, first compound 0.0316 µM
[14] = second compound 0.003 µM, first compound 0.1 µM
[15] = second compound 0.003 µM, first compound 0.316 µM
[16] = second compound 0.003 µM, first compound 1 µM
[17] = second compound 0.003 µM, first compound 3.16 µM
[18] = second compound 0.003 µM, first compound 10 µM
[19] = second compound 0.00949 µM, first compound 0.0316 µM
[20] = second compound 0.00949 µM, first compound 0.1 µM
[21] = second compound 0.00949 µM, first compound 0.316 µM
[22] = second compound 0.00949 µM, first compound 1 µM
[23] = second compound 0.00949 µM, first compound 3.16 µM
[24] = second compound 0.00949 µM, first compound 10 µM
[25] = second compound 0.03 µM, first compound 0.0316 µM
[26] = second compound 0.03 µM, first compound 0.1 µM
[27] = second compound 0.03 µM, first compound 0.316 µM
[28] = second compound 0.03 µM, first compound 1 µM
[29] = second compound 0.03 µM, first compound 3.16 µM
[30] = second compound 0.03 µM, first compound 10 µM
[31] = second compound 0.0949 µM, first compound 0.0316 µM
[32] = second compound 0.0949 µM, first compound 0.1 µM
[33] = second compound 0.0949 µM, first compound 0.316 µM
[34] = second compound 0.0949 µM, first compound 1 µM
[35] = second compound 0.0949 µM, first compound 3.16 µM
[36] = second compound 0.0949 µM, first compound 10 µM
[37] = second compound 0.3 µM, first compound 0.0316 µM
[38] = second compound 0.3 µM, first compound 0.1 µM
[39] = second compound 0.3 µM, first compound 0.316 µM
[40] = second compound 0.3 µM, first compound 1 µM
[41] = second compound 0.3 µM, first compound 3.16 µM
[42] = second compound 0.3 µM, first compound 10 µM
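Further: viability read after seven days of drug exposure.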
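Wherever viability, T/C is given: 100% = DMSO vehicle control viability.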

Compound C[C@@H](NC(=O)c1ncnc(N)c1Cl)c1ncc(C(=O)Nc2cc(C(F)(F)F)c(Cl)cn2)s1 + CCn1c(-c2cc(N3CCN(C)CC3)cnc2C(C)OC)c2c3cc(ccc31)-c1csc(n1)CC(NC(=O)C1CC1C)C(=O)N1CCCC(N1)C(=O)OCC(C)(C)C2 has an IC50 [1] greater than 10 µM, an IC50 [2] greater than 10 µM and an IC50 [3] greater than 10 µM. It also gave an IC50 [4] greater than 10 µM, an IC50 [5] greater than 10 µM and an IC50 [6] of less than 0.0316 µM. The viability, T/C [7] was 77.4%, the viability, T/C [8] was 94% and the viability, T/C [9] was 84.1%. For the same compound, the viability, T/C [10] was 87.6%, the viability, T/C [11] was 108% and the viability, T/C [12] was 78.5%. For the same compound, the viability, T/C [13] was 117%, the viability, T/C [14] was 91% and the viability, T/C [15] was 99.6%. It also gave a viability, T/C [16] of 85.9%, a viability, T/C [17] of 117% and a viability, T/C [18] of 70.1%. The viability, T/C [19] was 95.3%, the viability, T/C [20] was 83.4% and the viability, T/C [21] was 83.6%. It also gave a viability, T/C [22] of 84.4%, a viability, T/C [23] of 85.6% and a viability, T/C [24] of 53.1%. It also gave a viability, T/C [25] of 65.8%, a viability, T/C [26] of 71% and a viability, T/C [27] of 76.3%. It also gave a viability, T/C [28] of 72.4%, a viability, T/C [29] of 81.3% and a viability, T/C [30] of 55.6%. It also gave a viability, T/C [31] of 56.2%, a viability, T/C [32] of 58.2% and a viability, T/C [33] of 58.4%. The viability, T/C [34] was 48.7%, the viability, T/C [35] was 72.4% and the viability, T/C [36] was 51.2%. It also gave a viability, T/C [37] of 36.4%, a viability, T/C [38] of 44.2% and a viability, T/C [39] of 44.4%. It also gave a viability, T/C [40] of 45.4%, a viability, T/C [41] of 50.1% and a viability, T/C [42] of 33%.

Cc1nc(N2CCC3(CC2)COC(C)C3N)c(CO)nc1Sc1ccnc(N)c1Cl (stereo not given) + CCn1c(-c2cccnc2C(C)OC)c2c3cc(ccc31)N1CCOC(CC(NC(=O)C(C(C)C)N(C)C(=O)C3(F)CCN(C(=O)C#CC(C)(C)N(C)C)CC3)C(=O)N3CCCC(N3)C(=O)OCC(C)(C)C2)C1 gave an IC50 [1] greater than 10 µM, an IC50 [2] greater than 10 µM and an IC50 [3] greater than 10 µM. It also gave an IC50 [4] greater than 10 µM, an IC50 [5] greater than 10 µM and an IC50 [6] of 2.82 µM. The viability, T/C [7] was 84.9%, the viability, T/C [8] was 93.2% and the viability, T/C [9] was 75.4%. For the same compound, the viability, T/C [10] was 64.3%, the viability, T/C [11] was 60.4% and the viability, T/C [12] was 61.3%. The viability, T/C [13] was 94.2%, the viability, T/C [14] was 70.6% and the viability, T/C [15] was 71.4%. For the same compound, the viability, T/C [16] was 63.2%, the viability, T/C [17] was 67.1% and the viability, T/C [18] was 47.3%. The viability, T/C [19] was 104%, the viability, T/C [20] was 82% and the viability, T/C [21] was 83.9%. For the same compound, the viability, T/C [22] was 57.8%, the viability, T/C [23] was 67.1% and the viability, T/C [24] was 49.3%. The viability, T/C [25] was 75%, the viability, T/C [26] was 85.8% and the viability, T/C [27] was 63%. For the same compound, the viability, T/C [28] was 63.8%, the viability, T/C [29] was 65.5% and the viability, T/C [30] was 53.4%. For the same compound, the viability, T/C [31] was 78.2%, the viability, T/C [32] was 83.7% and the viability, T/C [33] was 74%. For the same compound, the viability, T/C [34] was 68.1%, the viability, T/C [35] was 63% and the viability, T/C [36] was 52.7%. It also gave a viability, T/C [37] of 85.2%, a viability, T/C [38] of 70.9% and a viability, T/C [39] of 70.5%. For the same compound, the viability, T/C [40] was 51.4%, the viability, T/C [41] was 51.4% and the viability, T/C [42] was 43.5%.

With C=CC(=O)Nc1cc(Nc2nccc(-c3cn(C)c4ccccc34)n2)c(OC)cc1N(C)CCN(C)C the viability, T/C (compound 0.00316 µM) was 96.4% [middle of 4 runs], the viability, T/C (compound 0.01 µM) was 92% [middle of 4 runs] and the viability, T/C (compound 0.0316 µM) was 83.7% [middle of 4 runs]. The viability, T/C (compound 0.1 µM) was 79.4% [middle of 4 runs], the viability, T/C (compound 0.316 µM) was 63.1% [middle of 4 runs] and the viability, T/C (compound 1 µM) was 40.1% [middle of 4 runs]. The IC50 (curve of compound) was 597 nM [middle of 4 runs].

NC1c2ccccc2OC12CCN(c1cnc3c(N4CCCc5ncccc54)n[nH]c3n1)CC2 (stereo not given) + C=CC(=O)N1CCN(c2nc(OCC3CCCN3C)nc3c(F)c(-c4nc(N)cc(C)c4C(F)(F)F)c(Cl)cc23)C(C)C1 gave an IC50 (curve of first compound, second compound 0.00316 µM) of 4.31 µM, an IC50 (curve of first compound, second compound 0.01 µM) of 3.21 µM and an IC50 (curve of first compound, second compound 0.0316 µM) of 2.88 µM. It also gave an IC50 (curve of first compound, second compound 0.1 µM) of 2.16 µM, an IC50 (curve of first compound, second compound 0.316 µM) of 3.37 µM and an IC50 (curve of first compound, second compound 1 µM) of 1.06 µM. For the same compound, the viability, T/C (second compound 0.00316 µM, first compound 0.0316 µM) was 72.3%, the viability, T/C (second compound 0.00316 µM, first compound 0.1 µM) was 68.1% and the viability, T/C (second compound 0.00316 µM, first compound 0.316 µM) was 63.8%. It also gave a viability, T/C (second compound 0.00316 µM, first compound 1 µM) of 57.2%, a viability, T/C (second compound 0.00316 µM, first compound 3.16 µM) of 52.4% and a viability, T/C (second compound 0.00316 µM, first compound 10 µM) of 44.9%. The viability, T/C (second compound 0.01 µM, first compound 0.0316 µM) was 78.6%, the viability, T/C (second compound 0.01 µM, first compound 0.1 µM) was 73.3% and the viability, T/C (second compound 0.01 µM, first compound 0.316 µM) was 63.3%. The viability, T/C (second compound 0.01 µM, first compound 1 µM) was 59%, the viability, T/C (second compound 0.01 µM, first compound 3.16 µM) was 51.6% and the viability, T/C (second compound 0.01 µM, first compound 10 µM) was 41%. The viability, T/C (second compound 0.0316 µM, first compound 0.0316 µM) was 80.1%, the viability, T/C (second compound 0.0316 µM, first compound 0.1 µM) was 73.6% and the viability, T/C (second compound 0.0316 µM, first compound 0.316 µM) was 71.4%. It also gave a viability, T/C (second compound 0.0316 µM, first compound 1 µM) of 56.8%, a viability, T/C (second compound 0.0316 µM, first compound 3.16 µM) of 50.4% and a viability, T/C (second compound 0.0316 µM, first compound 10 µM) of 43.1%. For the same compound, the viability, T/C (second compound 0.1 µM, first compound 0.0316 µM) was 78.2%, the viability, T/C (second compound 0.1 µM, first compound 0.1 µM) was 74.8% and the viability, T/C (second compound 0.1 µM, first compound 0.316 µM) was 60.1%. For the same compound, the viability, T/C (second compound 0.1 µM, first compound 1 µM) was 56.9%, the viability, T/C (second compound 0.1 µM, first compound 3.16 µM) was 46.6% and the viability, T/C (second compound 0.1 µM, first compound 10 µM) was 41.9%. The viability, T/C (second compound 0.316 µM, first compound 0.0316 µM) was 74.6%, the viability, T/C (second compound 0.316 µM, first compound 0.1 µM) was 68.4% and the viability, T/C (second compound 0.316 µM, first compound 0.316 µM) was 64.8%. The viability, T/C (second compound 0.316 µM, first compound 1 µM) was 60.2%, the viability, T/C (second compound 0.316 µM, first compound 3.16 µM) was 49.6% and the viability, T/C (second compound 0.316 µM, first compound 10 µM) was 41.2%. It also gave a viability, T/C (second compound 1 µM, first compound 0.0316 µM) of 70.6%, a viability, T/C (second compound 1 µM, first compound 0.1 µM) of 62.2% and a viability, T/C (second compound 1 µM, first compound 0.316 µM) of 53.6%. It also gave a viability, T/C (second compound 1 µM, first compound 1 µM) of 52%, a viability, T/C (second compound 1 µM, first compound 3.16 µM) of 47.2% and a viability, T/C (second compound 1 µM, first compound 10 µM) of 36%.

In the case of CC1(C)CCC(Nc2ncc(C(F)(F)F)c(-c3c[nH]c4c(P(C)(C)=O)c(C#N)ccc34)n2)CN1 (stereo not given), the viability, T/C (compound 0.000949 µM) is reported as 95.8% [middle of 4 runs], the viability, T/C (compound 0.003 µM) is reported as 89.1% [middle of 4 runs] and the viability, T/C (compound 0.00949 µM) is reported as 92.5% and 92.7% and 87.3% (2×). The viability, T/C (compound 0.03 µM) was 87.3% [middle of 4 runs], the viability, T/C (compound 0.0949 µM) was 87.8% [middle of 4 runs] and the viability, T/C (compound 0.3 µM) was 76.5% [middle of 4 runs]. For the same compound, the IC50 (curve of compound) was greater than 0.3 µM.
